Test results from patent publication US4623715A, “Novel peptides which are active on the central nervous system and have an action on the cholinergic system” (Hoechst Aktiengeselleschaft, priority 1984, dated 1986).

Tests used:
[1] = tested on: cholinergic system (striatum of rats); assay: Biochemical effects in the striatum (acetylcholine and choline content) after s.c. administration; action on the cholinergic system; format: in vivo; details: for Biochemical effects in the striatum: ACH (acetylcholine) / Biochemical effects in the striatum: CH (choline): s.c., at the dose printed in the same line (E2), arrow up/down = content increased/reduced; for Biochemical effects in the striatum: Dose mcg/kg s.c.; (rats): s.c. dose in rats at which the ACH/CH effects of the same line are reported
Experimental: At the same time, cholinergic mechanisms in the central nervous system (CNS) are influenced. In the striatum of rats, the choline content is reduced and the acetylcholine content is increased following subcutaneous administration of 10 μg.
The action of the compounds according to the invention on the cholinergic system is determined by a method described in J. Neurochem. 20 (1973), pages 1-8.

[2] = tested on: cholinergic system (striatum of rats); assay: as above; format: in vivo; details: s.c. administration of 1 μg
[3] = tested on: acetylcholine conversion in various areas of the brain; details: intracerebroventricular (i.c.v.) administration; cited from earlier work
rats = assay: Behavior (grooming, yawning, stretching; urge to groom and move) after i.c.v. administration; format: in vivo; details: i.c.v. administration of 10 μg
[4] = rats, subcutaneous administration of 10 μg

Molecule | Biochemical effects in the striatum: ACH (acetylcholine) ([1]; rats) | Biochemical effects in the striatum: CH (choline) ([1]; rats) | Biochemical effects in the striatum: Dose mcg/kg s.c.; (rats) [1] | acetylcholine content in the striatum ([2]; same actions as IV at 10 μg (increased)) | choline content in the striatum ([2]; same actions as IV at 10 μg (reduced)) | acetylcholine conversion in various areas of the brain [3] | acetylcholine content in the striatum [1, 4] | choline content in the striatum [1, 4] | urge to groom and move (rats)
Z--D--Lys--Phe--NH--(CH2)8 --NH2.2HCl [V] | .uparw. | .dwnarw. | 1.0 µg/kg | the same actions | the same actions |  |  |  | 
ACTH--(1-24) [VI, reference compound] | .dwnarw. | .uparw. | 0.01 to 1 µg/kg |  |  | acceleration |  |  | 
ACTH (SYSMEHFRWGKPVGKKRRPVKVYPNGAEDESAEAFPLEF; Corticotropin; UniProt P01189 138-176, looked up) [peptide hormone cited from the literature] |  |  |  |  |  | acceleration |  |  | 
COC(=O)[C@H](Cc1ccccc1)NC(=O)[C@H](CCCCN)NC(=O)OCc1ccccc1 [IV, Z--Lys--Phe--OMe] |  |  |  |  |  |  | increased | reduced | cause the urge to groom and move
